Measured values reported in publication PMC11019550, “Potent Inhibition of E. coli DXP Synthase by a gem-Diaryl Bisubstrate Analog” (ACS Infectious Diseases, 2024).

What was measured:
[1] = biological target: T1, EcDXPS (Escherichia coli, UniProt P77488); test: DXPS-IspC coupled assay, apparent Ki on wildtype EcDXPS; assay type: biochemical; conditions: EcDXPS 100 nM, 10 min preincubation; Morrison equation fit; read-out: Ki^app
T1 construct: made in house
Experimental: To determine inhibitor potency, we used the DXPS-DXP reductoisomerae (DXPS-IspC) coupled assay to measure the activity of recombinant purified EcDXPS[24],[25],[31],[44],[50] in the presence of inhibitors. Reactions were initiated by the addition of substrates following a short preincubation of the inhibitor with enzymes, and initial velocities were determined by monitoring reduced nicotinamide adenine dinucleotide phosphate (NADPH) absorbance at 340 nm. Apparent Ki values were determined by fitting initial velocity data to the Morrison equation,[64],[65] which accounts for the tight-binding nature (Ki^app/[E]total < 10)[66] of inhibitors included in this study and allows for rigorous comparison of inhibitor potencies. […] Inhibitor activities were rationalized based on the predictions made from molecular docking of the corresponding PLThDP adducts into the DXPS active site.
All compounds in this study were evaluated as DXPS inhibitors using the DXPS-IspC coupled assay as previously reported.[24] […] The DXPS reaction was initiated by the addition of substrates (50 μM pyruvate and 500 μM D-GAP). The initial rate of depletion of NADPH was monitored at 340 nm and was used to calculate the initial rate of DXP formation in the presence or absence of inhibitor. Initial rates of DXP formation were plotted as a function of [inhibitor], and Ki^app was determined by fitting the data to the Morrison equation (eq 1)[64],[65] in GraphPad Prism. This approach was deemed appropriate as the concentration of free inhibitor cannot be assumed to remain constant for most of these analogs in which Ki^app values approach the concentration of DXPS.[88],[89] Error is reported as standard deviation from three replicates. Active enzyme concentration ([E]T) was determined following Copeland’s method using 8 (Figure S2B).[88]
The coupled assay was initiated by adding 20 μL of a 10× substrate stock to the preincubated E + I mixture to give a final volume of 200 μL. The final concentration of D-GAP was held constant at 500 μM, and [pyruvate] was added to final concentrations between 0 and 250 μM. The initial rate of NADPH depletion in the IspC-coupled reaction was monitored at 340 nm and was used to calculate the initial rate of DXP formation in the presence or absence of inhibitor. Initial rates were plotted as a function of [pyruvate]. […] Model discrimination analysis employing the Akaike information criterion was performed as well as Lineweaver–Burk analysis to determine the mixed model as the best fit. In all cases, error bars represent the standard deviation from three replicates.

[2] = biological target: T2, R99A EcDXPS (Escherichia coli, UniProt P77488, R99A); test: Circular dichroism titration (PLThDP formation, apparent KD) on R99A EcDXPS; assay type: binding
T2 construct: made in house
Experimental: CD titrations of 8 and 10 onto WT, R99A, and R478A EcDXPS variants were conducted at 25 °C under aerobic conditions in 1.5 mL solutions containing 30 μM EcDXPS in 50 mM HEPES pH 8, 100 mM NaCl, 1 mM MgCl2, and 0.2 mM ThDP. Scans were obtained from 280 to 400 nm with a 0.5 s averaging time and 1 nm step following a titration of inhibitor (8: 0.25–30 μM on WT, 0.5–30 μM on R99A and R478A; 10 2.5–30 μM on WT, R99A, and R478A), with a 5 min preincubation of inhibitor with DXPS prior to scanning. […] The CD signals at 294 nm determined from the difference spectra obtained by subtracting the signal of E-ThDP at 294 nm were plotted as a function of [inhibitor] and fit to (1) the quadratic equation described in eq 2 (8 on WT DXPS), where E is the concentration of DXPS taking into account stoichiometric binding and CDmax is the maximal CD signal, or (2) a one-site specific binding curve (all other experiments) using GraphPad Prism Version 9 to calculate an apparent KD. Experiments were conducted in triplicate and the standard error was calculated. [drawing 2] 2
At the conclusion of the titration described above, the CD signal at 313 nm (previously characterized for LThDP) was recorded. Pyruvate (1 mM) was then added to the mixture, and a CD scan of the resulting solution was conducted as described above, to detect shifts in the CD spectrum that may correlate to LThDP formation. Experiments were conducted in triplicate.

[3] = tested on: porcine pyruvate dehydrogenase (PDH) E1 subunit; test: Inhibition of porcine pyruvate dehydrogenase (PDH); assay type: biochemical
Text: As noted, DXPS has a large active site and follows a mechanism requiring ternary complex formation, distinct from other ThDP-dependent pyruvate decarboxylases. We hypothesized that the sterically demanding scaffold of 8, predicted to engage both substrate binding sites, should display selectivity for DXPS. In a preliminary assessment, we tested 8 as an inhibitor of porcine pyruvate dehydrogenase (PDH) E1 subunit. […] For comparison, the selectivity ratio for 1 was estimated to be >15,000-fold for DXPS over porcine PDH.
Figure S5. Evaluation of inhibitory activity of 8 against mammalian porcine pyruvate dehydrogenase (PDH). Porcine PDH (0.01 U/mL) and inhibitor (8 or MAP positive control) were preincubated for 10 minutes at 25 °C in enzyme buffer (2 mM MgCl2, 5 mM L-cysteine, 1 mM ThDP, 300 μM TCEP, 100 mM HEPES pH 8, 2.5 mM NAD +, and 100 μM coenzyme A). The reaction was initiated by addition of pyruvate (60 μM). The change in absorbance at 340 nm over time was measured and used to calculate the initial rate of NADH formation. The % activity of PDH in the presence of 8 or MAP was plotted using GraphPad Prism version 9. There is 21% inhibition of PDH activity observed in the presence of compound 8 at a concentration of 1 mM.
Experiments were performed in triplicate. Error bars represent standard error.
Figure S6. Replicate progress curves for DXP formation in the presence or absence of inhibitors 8 or 10 with EcDXPS. A) Progress curves for formation of DXP in the presence of 8 display time-dependence of inhibition. B) Progress curves for formation of DXP in the presence of descarboxyl […]

For `CC(=O)P(=O)(O)OCCc1cn(C(Cc2ccccc2)(Cc2ccccc2)C(=O)O)nn1` [Compound 8], the Ki [1] was 0.0029 ± 0.0005 µM, the Kd [2] was 19 ± 3 µM and the “change in PLThDP CD signal upon addition of pyruvate” value ([2]; R99A-PLThDP complex) was “shift in the CD profile toward the characteristic LThDP signal”. For the same molecule, the “estimated selectivity ratio for DXPS over porcine PDH” value ([3]; DXPS over porcine PDH) was > 64,000 fold and the “inhibition of PDH” value ([3]; at a concentration of 1 mM, 60 μM pyruvate, 10 min preincubation) was 21%.
